Assay results as given in US6713511B1, “Fatty acid derivatives” (priority 1998, dated 2004).
Where two headings read alike, the source gives them in different places. Blank lines part the entries; values can stand above or below the compound they belong to.

How the values were obtained:
Type in all cases: in vivo, rat
[1] = system: rats with unilateral caudate nucleus (striatum) lesion
Source text: One of the major behavioral methods to measure the increase in dopamine activity in the brain is rotational behavior. Dopamine is the neurotransmitter in the striatum. The striatum controls motor movements and motor integration. In the brain there are two striata, in the right and left hemispheres, respectively. Unilateral ablation of a striatum will result in walking in circles, as the intact striatum is still functioning; Ungerstadt, U. et al., Brain Res., 1970, 24: 485-492, created a lesion in one striatum and measured the effect on rotational behavior. Since then, this technique has been used to screen molecules, such as stimulants or potential anti-Parkinson drugs, which induce increase in dopaminergic activity.
Groups of 6 male Sprague-Dawley rats (Charles River Laboratories, Wilmington, Mass.) weighing 100-120 g, were housed 6 per cage in a well-ventilated and air-conditioned room of ambient temperature (22±2° C.) and relative humidity 45%. The rats had access to food (Big Red Laboratory Chow, Agway Inc., Syracuse, N.Y.) and water ad libitum. Light (“Vita Light”, Duro Test Corp., North Bergen, N.J.) was provided between 9 am and 9 pm.
All surgery was performed under anesthesia (sodium pentobarbital, 50 mg/ml, as required). The rats were placed in a Kopf stereotaxic instrument (model #900). Unilateral anodal electrolytic lesions were made with constant current supply (lesion-producing device #58040, Stoelting, Chicago, Ill.). Current (2.0 mV for 10 seconds) was passed through stainless steel insulated wire pe 32, 0.008 inches diameter (“Formax”, Stoelting, Chicago, Ill.), bared only at the tip. […]
Rotational behavior was tested in a rotameter, modified from the design of Ungerstedt et al., 1970. […] The potentiometer (preamplifier 8805 A) measured and recorded the changes in the amount of current which passed through it, resulting from the rotational movements of the rats. […]
Each rat was placed in the rotameter and treated with an i.p. injection of saline or (I) (10 mg/kg) as prepared above. […] The frequency of turning was measured between 30-40 minutes post-injection. […]

[2] = system: rats with unilateral caudate nucleus (striatum) lesion; assay: Rotational behavior in rats with unilateral striatum lesion, testing of (II)
Procedure: Three groups of 12 male Sprague-Dawley rats (Charles River Laboratories, Wilmington, Mass.) weighing 100-150 g, were housed 6 per cage in a well-ventilated and air-conditioned room of ambient temperature (22±2° C.) and relative humidity 45%. The rats had access to food (Big Red Laboratory Chow, Agway Inc., Syracuse, N.Y.) and water ad libitum. Light (“Vita Light”, Duro Test Corp., North Bergen, N.J.) was provided between 9 am and 9 pm. These groups were used for rotational study, the dosage of (II) being 100 mg/kg, i.p.
One group served as a control group (no treatment), a second group was a sham operated group, and a third group was the operated group. All surgery was performed under anesthesia (sodium pentobarbital, 50 mg/ml, as required). The rats were placed in a Kopf stereotaxic instrument (model #900). Unilateral anodal electrolytic lesions were made with constant current supply (lesion-producing device #58040, Stoelting, Chicago, Ill.). Current (2.0 mV for 10 seconds) was passed through stainless steel insulated wire pc 32, 0.008 inches diameter (“Formax”, Stoelting, Chicago, Ill.), bared only at the tip. The coordinates (modified from Konig and Klippel, 1963) for caudate nucleus lesion were: A 8.5, L 2.2, V+1.8. The lesions were made in the left side of the brain. Sham operated animals were treated as lesioned animals, i.e. they were placed in the stereotaxic instrument and an electrode was placed in the brain, but without passing electric current therethrough. After surgery, each rat was placed in an individual cage. Tests were made at day 10 after surgery. At the end of the experiment, each rat was given an overdose of pentobarbital and perfused with saline, followed by 10% formalin. Brains were removed and serial coronal slices were made at 40 micra, using a freezing microtome. Representative slides were stained with Cresyl Violet for verification of the lesion.
Details of the procedure with regard to determination of rotational behavior were substantially as described above for testing (I).

[3] = system: rats challenged with Ro4-1284; assay: Ro4-1284-induced blephrospasm model
Source text: This is an involuntary spasm of the orbicular muscles of the eye, causing forceful closure of the eyes. Symptomatically there is a significant increase in the rate of eyelid closures/min. This phenomenon is regarded as a type of dystonia, a decrease in the brain dopamine level being the etiology of this syndrome. Ro4-1284 is a powerful dopamine-depleting agent. In saline-treated animals, Ro4-1284 is able to induce an animal model of benign essential blephrospasm. Groups of rats similar to those described above were treated daily for 14 days with 25 mg/kg (II), i.p., and then were challenged with a dose of 40 mg/kg Ro4-1284, i.p. The results of this test were shown in the following Table.

[4] = lesioned rats, 100 mg/kg i.p., day 10 after surgery

crossing of the blood-brain barrier ([1]; rat, in vivo): cross the blood-brain barrier | abnormal behavior (stereotype) ([1]; rat, in vivo, ip, 10 mg/kg): not found
SMILES: CC/C=C\C/C=C\C/C=C\CCCCCCCC(=O)N[C@@H](Cc1ccc(O)cc1)C(=O)O [(I), N-(α-linolenoyl)tyrosine]
rate of rotational motion ([1]; lesioned rats, 10 mg/kg i.p., 30-40 minutes post-injection, day 4 after surgery, increased from 4 cycles/minute): 40 cycles/minute

crossing of the blood-brain barrier ([2]; conclusion drawn from the behavioral testing): cross the blood-brain barrier
SMILES: CC/C=C\C/C=C\C/C=C\CCCCCCCC(=O)N[C@@H](Cc1ccc(O)cc1)C(=O)OC [(II), N-β-linolenyltyrosine Methyl Ester]
% L [2, 4]: 98% | % R [2, 4]: 2% | L (turns to the left) [2, 4]: 98 | L + R [2, 4]: 100 | R (turns to the right) [2, 4]: 2 | rate of eyelid blinking/min. ([3]; 25 mg/kg (II) i.p. daily for 14 days, then Ro4-1284 40 mg/kg i.p., 30 minutes after Ro4-1284, p < 0.001): 5.00 ± 1.95 min⁻¹

SMILES: CCC1(O)CC2c3cc(OC)c(OC)cc3CCN2CC1CC(C)C (centres unmarked) [Ro4-1284, reference compound]
rate of eyelid blinking/min. ([3]; Ro4-1284 40 mg/kg i.p. alone, 30 minutes after treatment with Ro4-1284): 19.08 ± 3.4 min⁻¹
